Like-named read-outs stand apart in the source and are kept apart here.
How the values were obtained:
TAFIa [1] = target: T1, TAFIa (Homo sapiens, UniProt Q96IY4); assay: TAFIa inhibition (Actichrome plasma TAFI Activity Kit, 15 minutes pre-incubation); type: biochemical; conditions: 15 minutes pre-incubation at room temperature
T1 construct: purchased American Diagnostica 874TAFIA
T1 sequence (Q96IY4 115-423): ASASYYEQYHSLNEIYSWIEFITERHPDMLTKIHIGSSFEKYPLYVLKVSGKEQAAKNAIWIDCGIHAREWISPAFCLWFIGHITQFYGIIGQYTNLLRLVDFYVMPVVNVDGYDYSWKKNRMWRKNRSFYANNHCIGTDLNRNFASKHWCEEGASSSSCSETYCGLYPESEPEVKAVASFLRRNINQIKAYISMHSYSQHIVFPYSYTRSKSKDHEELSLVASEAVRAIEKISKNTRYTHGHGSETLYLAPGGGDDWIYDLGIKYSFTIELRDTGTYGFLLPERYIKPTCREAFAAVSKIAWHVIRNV
Experimental: The prepared substances were tested for TAFIa inhibition using the Actichrome plasma TAFI Activity Kit from American Diagnostica (Pr. No. 874). This entailed adding 28 μl of assay buffer (20 mM Hepes, 150 mM NaCl, pH 7.4) and 10 μl of TAFIa (American Diagnostica Pr. No. 874TAFIA; 2.5 μg/ml) to 2 μl of 2.5 mM DMSO solution of the substance and incubating in a 96 half-well microtiter plate at room temperature for 15 minutes. The enzyme reaction was started by adding 10 μl of TAFIa developer (prediluted 1:2 with assay buffer). The time course of the reaction was followed at 420 nm in a microtiter plate reader (SpectraMax plus 384; Molecular Devices) for 15 minutes.
The IC50 values were calculated from the averaged values (duplicate determination) of serial dilutions of the substance with the aid of the Softmax Pro software (version 4.8; Molecular Devices).

TAFIa [2] = target: T1, TAFIa; assay: TAFIa inhibition at variable preincubation times; type: biochemical; conditions: for behaviour of the coefficient of IC50s with increasing pre-incubation time: increasing pre-incubation time (0 to 30 min)
Experimental: The prepared substances were tested for TAFIa inhibition using the Actichrome plasma TAFI Activity Kit from American Diagnostica (Pr. No. 874). This entailed adding 28 μl of assay buffer (20 mM Hepes, 150 mM NaCl, pH 7.4) and 10 μl of TAFIa (American Diagnostica Pr. No. 874TAFIA; 2.5 μg/ml) to 2 μl of 2.5 mM DMSO solution of the substance and incubating in a 96 half-well microtiter plate at room temperature for variable pre-incubation times (0, 5, 15 and 30 minutes). The enzyme reaction was started by adding 10 μl of TAFIa developer (prediluted 1:2 with assay buffer). The time course of the reaction was followed at 420 nm in a microtiter plate reader (SpectraMax plus 384; Molecular Devices) for 15 minutes.
The IC50 values were calculated from the averaged values (duplicate determination) of serial dilutions of the substance with the aid of the Softmax Pro software (version 4.8; Molecular Devices). The coefficient of IC50 values was determined by IC50 value at 0 min over IC50 value at x minutes, wherein x can be 0, 5, 15 or 30 minutes of pre-incubation time.

[3] = example compounds, read-out: IC50

Row | IC50 (TAFIa [1]; comparison examples according to WO2009146802, read-out: IC50 of Comparison examples) | behaviour of the coefficient of IC50s with increasing pre-incubation time (TAFIa [2]) | Coefficient of IC50s (IC50 value at 0 min/IC50 value at x min preincubation time) (TAFIa [2]; pre-incubation time 0 min) | Coefficient of IC50s (IC50 value at 0 min/IC50 value at x min preincubation time) (TAFIa [2]; pre-incubation time 5 min) | Coefficient of IC50s (IC50 value at 0 min/IC50 value at x min preincubation time) (TAFIa [2]; pre-incubation time 15 min) | Coefficient of IC50s (IC50 value at 0 min/IC50 value at x min preincubation time) (TAFIa [2]; pre-incubation time 30 min) | IC50 (TAFIa [1]; [3]) | Structure (SMILES)
1 | 4 nM | stays nearly constant in time | 1 | 0.5 | 1.3 | 1 |  | CC(C)[C@H]1COCCCCOc2ccc(cc2)C[C@@H](NC(=O)N[C@@H](C[C@H]2C[C@H](N)C2)C(=O)O)C(=O)N1 [reference compound]
2 |  |  |  |  |  |  | 0.3 nM | CC(C)[C@H]1COCCCCOc2ccc(cc2)C[C@@H](NC(=O)N[C@@](C)(Cc2ccc(N)nc2)C(=O)O)C(=O)N1 [Example 1, (S)-3-(6-Amino-pyridin-3-yl)-2-[3-((9S,12R)-9-isopropyl-11-oxo-2,7-dioxa-10-aza-bicyclo[12.2.2]octadeca-1(17),14(18),15-trien-12-yl)-ureido]-2-methyl-propionic acid]
3 |  | increases | 1 | 2.9 | 5.8 | 7.7 | 0.3 nM | CC(C)[C@H]1COCCCCOc2ccc(cc2)C[C@@H](NC(=O)N[C@@](C)(C[C@H]2C[C@H](N)C2)C(=O)O)C(=O)N1 [Example 2, (S)-3-trans-(3-Amino-cyclobutyl)-2-[3-((9S,12R)-9-isopropyl-11-oxo-2,7-dioxa-10-aza-bicyclo[12.2.2]octadeca-1(17),14(18),15-trien-12-yl)-ureido]-2-methyl-propionic acid]
4 |  |  |  |  |  |  | 1 nM | CC(C)[C@H]1COCCCCOC[C@@H](NC(=O)N[C@@](C)(Cc2ccc(N)nc2)C(=O)O)C(=O)N1 [Example 4, (S)-3-(6-Amino-pyridin-3-yl)-2-[3-((3S,6R)-3-isopropyl-5-oxo-1,8-dioxa-4-aza-cyclododec-6-yl)-ureido]-2-methyl-propionic acid]
5 |  |  |  |  |  |  | 1 nM | CC(C)[C@H]1COCCCCOc2ccc(cc2)C[C@@H](NC(=O)N[C@@](C)(C[C@@H]2CC[C@@H](N)C2)C(=O)O)C(=O)N1 [Example 3, (S)-3-((1R,3R)-3-Amino-cyclopentyl)-2-[3-((9S,12R)-9-isopropyl-11-oxo-2,7-dioxa-10-aza-bicyclo[12.2.2]octadeca-1(17),14(18),15-trien-12-yl)-ureido]-2-methyl-propionic acid]

— patent US9834527B2, “Macrocyclic urea derivatives as inhibitors of TAFIa, their preparation and their use as pharmaceuticals” (SANOFI, priority 2013, dated 2017)
